# Test results from patent US20030139431A1 (priority 2001, published 2003).
# pEC50, pKi: −log10 of the molar value.
# Legend:
# rNPFF1 [1] = target: T1, rNPFF1 (Rattus norvegicus, UniProt Q9EP86); assay: Binding affinity at cloned recombinant rat NPFF1 receptor
# T1 construct: expressed in transfected cells
# rNPFF2 [2] = target: T2, rNPFF2 (Rattus norvegicus, UniProt Q9EQD2); assay: Functional assay (agonist potency, intrinsic activity) at cloned rat NPFF2 receptor; type: cell-based; settings: for rNPFF2 IA (intrinsic activity): percent of maximum response elicited by neuropeptide FF, rat NPFF2; for pEC50: recombinant rat NPFF2
# T2 construct: expressed in transfected cells
# T2 sequence (Q9EQD2 whole entry): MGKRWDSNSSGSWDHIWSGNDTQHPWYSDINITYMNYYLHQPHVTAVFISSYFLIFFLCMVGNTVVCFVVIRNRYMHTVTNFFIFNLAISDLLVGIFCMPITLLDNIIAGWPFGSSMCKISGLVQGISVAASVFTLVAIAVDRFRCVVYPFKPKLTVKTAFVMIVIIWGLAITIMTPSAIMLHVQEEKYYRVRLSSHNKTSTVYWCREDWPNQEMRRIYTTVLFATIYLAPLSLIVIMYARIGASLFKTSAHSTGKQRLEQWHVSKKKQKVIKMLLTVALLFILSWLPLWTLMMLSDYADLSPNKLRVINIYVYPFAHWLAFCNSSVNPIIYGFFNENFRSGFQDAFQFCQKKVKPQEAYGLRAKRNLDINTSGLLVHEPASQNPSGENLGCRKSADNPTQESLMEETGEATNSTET
# Protocol: (§1) Intrinsic activity of a compound is measured as the percent of maximum response.
# rNPFF2 [3] = target: T2, rNPFF2; assay: Binding affinity at cloned recombinant rat NPFF2 receptor
# rNPFF1 [4] = target: T1, rNPFF1; assay: Functional assay (agonist potency, intrinsic activity) at cloned rat NPFF1 receptor; type: cell-based; settings: for rNPFF1 IA (intrinsic activity): percent of maximum response elicited by neuropeptide FF, rat NPFF1; for pEC50: recombinant rat NPFF1
# Protocol: as §1
# T1 sequence (Q9EP86 whole entry): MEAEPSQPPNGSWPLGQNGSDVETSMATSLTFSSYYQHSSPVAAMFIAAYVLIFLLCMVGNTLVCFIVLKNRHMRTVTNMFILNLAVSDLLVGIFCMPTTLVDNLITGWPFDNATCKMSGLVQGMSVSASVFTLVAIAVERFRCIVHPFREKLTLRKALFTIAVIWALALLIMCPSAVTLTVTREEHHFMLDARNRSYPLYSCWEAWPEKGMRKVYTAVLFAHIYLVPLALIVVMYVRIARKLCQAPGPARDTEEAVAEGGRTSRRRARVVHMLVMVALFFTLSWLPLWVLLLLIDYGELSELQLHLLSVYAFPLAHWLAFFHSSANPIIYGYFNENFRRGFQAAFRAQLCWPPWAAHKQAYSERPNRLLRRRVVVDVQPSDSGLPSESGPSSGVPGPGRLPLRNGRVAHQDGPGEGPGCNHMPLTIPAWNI
Structure (SMILES),pKi (rNPFF1 [1]),rNPFF2 IA (intrinsic activity) (rNPFF2 [2]),pEC50 (rNPFF2 [2]),pKi (rNPFF2 [3]),rNPFF1 IA (intrinsic activity) (rNPFF1 [4]),pEC50 (rNPFF1 [4])
"Cc1nc(NC(=N)N)nc2ccc(Br)cc12 [Compound 1026, N-(6-bromo-4-methyl-2-quinazolinyl)guanidine]",6.10,19% NPFF,< 5.00,< 5.00,Inactive,< 5.00
"Cc1nc(NC(=N)N)nc2cc(OC(F)(F)F)ccc12 [Compound 1036, N-[4-methyl-7-(trifluoromethoxy)-2-quinazolinyl]guanidine]",6.88,78% NPFF,6.43,5.61,Inactive,< 5.00
"Cc1nc(NC(=N)N)nc2ccc(Cc3ccccc3)cc12 [Compound 2003, N-(6-benzyl-4-methyl-2-quinazolinyl)guanidine]",6.43,89% NPFF,7.31,6.71,56% NPFF,6.77
"Cc1cc2nc(NC(=N)N)nc(C)c2cc1O [Compound 1017, N-(6-hydroxy-4,7-dimethyl-2-quinazolinyl)guanidine]",6.63,23% NPFF,< 5.00,5.23,Inactive,< 5.00
"CCCCCOc1ccc2nc(NC(=N)N)nc(C)c2c1 [Compound 1031, N-[4-methyl-6-(pentyloxy)-2-quinazolinyl]guanidine]",6.10,66% NPFF,5.66,5.49,Inactive,< 5.00
"Cc1nc(NC(=N)N)nc2cc(Br)ccc12 [Compound 1014, N-(7-bromo-4-methyl-2-quinazolinyl)guanidine]",6.52,47% NPFF,5.61,5.46,Inactive,< 5.00
"Cc1nc(NC(=N)N)nc2ccc(C3CCCCC3)cc12 [Compound 1029, N-(6-cyclohexyl-4-methyl-2-quinazolinyl)guanidine]",6.04,31% NPFF,5.69,5.92,28% NPFF,< 5.00
"Cc1nc(NC(=N)N)nc2ccc(OC(F)(F)F)cc12 [Compound 1030, N-[4-methyl-6-(trifluoromethoxy)-2-quinazolinyl]guanidine]",6.75,85% NPFF,6.20,5.31,Inactive,< 5.00
"CCC(C)c1ccc2nc(NC(=N)N)nc(C)c2c1 (centres unmarked) [Compound 2002, N-(6-sec-butyl-4-methyl-2-quinazolinyl)guanidine]",7.11,92% NPFF,6.37,6.34,51% NPFF,6.60
"Cc1nc(NC(=N)N)nc2ccc(-c3ccccc3)cc12 [Compound 1010, N-(4-methyl-6-phenyl-2-quinazolinyl)guanidine]",6.51,22% NPFF,< 5.00,5.46,Inactive,< 5.00
"CCCCCCCCc1ccc2nc(NC(=N)N)nc(C)c2c1 [Compound 1009, N-(4-methyl-6-octyl-2-quinazolinyl)guanidine]",6.51,22% NPFF,5.25,6.15,Inactive,
"CCOc1ccc2c(C)nc(NC(=N)N)nc2c1 [Compound 1024, N-(7-ethoxy-4-methyl-2-quinazolinyl)guanidine]",6.18,Inactive,< 5.00,5.25,Inactive,< 5.00
"Cc1cc(NC(=N)N)nc2cc(F)ccc12 [Compound 4007, N-(7-fluoro-4-methyl-2-quinolinyl)guanidine]",7.36,17% NPFF,5.58,6.21,Inactive,< 5.00
"Cc1nc(NC(=N)N)nc2cc(F)c(F)cc12 [Compound 1019, N-(6,7-difluoro-4-methyl-2-quinazolinyl)guanidine]",7.24,31% NPFF,5.59,5.54,Inactive,< 5.00
"CCCCOc1cc2nc(NC(=N)N)nc(C)c2cc1OCCCC [Compound 1018, N-(6,7-dibutoxy-4-methyl-2-quinazolinyl)guanidine]",6.52,Inactive,< 5.00,5.89,Inactive,< 5.00
"COc1ccc2nc(NC(=N)N)nc(C)c2c1 [Compound 1011, N-(6-methoxy-4-methyl-2-quinazolinyl)guanidine]",6.70,Inactive,< 5.00,< 5.00,Inactive,< 5.00
"Cc1cc2nc(NC(=N)N)nc(C)c2cc1C [Compound 1015, N-(4,6,7-trimethyl-2-quinazolinyl)guanidine]",7.38,56% NPFF,6.57,5.96,Inactive,< 5.00
"CCc1ccc2c(C)nc(NC(=N)N)nc2c1 [Compound 1020, N-(7-ethyl-4-methyl-2-quinazolinyl)guanidine]",7.74,90% NPFF,6.16,6.56,Inactive,< 5.00
"CCCc1ccc2nc(NC(=N)N)nc(C)c2c1 [Compound 1008, N-(4-methyl-6-propyl-2-quinazolinyl)guanidine]",6.81,85% NPFF,6.21,5.95,Inactive,< 5.00
"Cc1nc(NC(=N)N)nc2ccc(OCCCCCOc3ccccc3)cc12 [Compound 1005, N-4-methyl-6-[(5-phenoxypentyl)oxy]-2-quinazolinylguanidine]",6.50,21% NPFF,5.50,5.67,Inactive,< 5.00
"Cc1nc(NC(=N)N)nc2cc(C(C)O)ccc12 (centres unmarked) [Compound 1035, N-[7-(1-hydroxyethyl)-4-methyl-2-quinazolinyl]guanidine]",6.07,52% NPFF,5.50,5.93,Inactive,< 5.00
"Cc1ccc(Oc2ccc3nc(NC(=N)N)nc(C)c3c2)cc1 [Compound 1033, N-[4-methyl-6-(4-methylphenoxy)-2-quinazolinyl]guanidine]",6.32,51% NPFF,5.50,5.23,Inactive,< 5.00
"COc1cc2c(C)nc(NC(=N)N)nc2cc1C [Compound 1016, N-(6-methoxy-4,7-dimethyl-2-quinazolinyl)guanidine]",6.25,74% NPFF,5.50,5.60,Inactive,< 5.00
"CCCCCCCc1ccc2nc(NC(=N)N)nc(C)c2c1 [Compound 2006, N-(6-heptyl-4-methyl-2-quinazolinyl)guanidine]",6.10,47% NPFF,5.71,5.43,38% NPFF,6.05
